Laboratory results: ChEMBL document CHEMBL5726791, “Inhibitors of lysine specific demethylase-1” (2018)

Target: Lysine-specific histone demethylase 1A (Homo sapiens, UniProt O60341)
Experiment: In Vitro Enzyme Inhibition Assay: The enzymatic assay of LSD1 activity is based on Time Resolved-Fluorescence Resonance Energy Transfer (TR-FRET) detection. The inhibitory properties of compounds to LSD1 were determined in 384-well plate format under the following reaction conditions: 0.1-0.5 nM LSD1, 50 nM H3K4mel-biotin labeled peptide (Anaspec cat #64355), 2 μM FAD in assay buffer of 50 mM HEPES, pH7.3, 10 mM NaCl, 0.005% Brij35, 0.5 mM TCEP, 0.2 mg/ml BSA. Reaction product was determined quantitatively by TR-FRET after the addition of detection reagent Phycolink Streptavidin-allophycocyanin (Prozyme) and Europium-anti-unmodified histone H3 lysine 4 (H3K4) antibody (PerkinElmer) in the presence of LSD1 inhibitor such as 1.8 mM of Tranylcypromine hydrochloride (2-PCPA) in LANCE detection buffer (PerkinElmer) to final concentration of 12.5 nM and 0.25 nM respectively.

IC50: < 100 nM
Compound: Cn1ncc2cc(-c3sc(N4CC[C@@H]5CNC[C@@H]5CC4)nc3-c3ccc(C#N)cc3)ccc21
